Key:
[1] = molecular target: T1, Bifunctional epoxide hydrolase 2 (Rattus norvegicus, UniProt P80299); assay: Inhibition of recombinant rat soluble epoxide hydrolase assessed as increase in fluorescence intensity by fluorescence plate reader
T1 sequence (P80299 whole entry): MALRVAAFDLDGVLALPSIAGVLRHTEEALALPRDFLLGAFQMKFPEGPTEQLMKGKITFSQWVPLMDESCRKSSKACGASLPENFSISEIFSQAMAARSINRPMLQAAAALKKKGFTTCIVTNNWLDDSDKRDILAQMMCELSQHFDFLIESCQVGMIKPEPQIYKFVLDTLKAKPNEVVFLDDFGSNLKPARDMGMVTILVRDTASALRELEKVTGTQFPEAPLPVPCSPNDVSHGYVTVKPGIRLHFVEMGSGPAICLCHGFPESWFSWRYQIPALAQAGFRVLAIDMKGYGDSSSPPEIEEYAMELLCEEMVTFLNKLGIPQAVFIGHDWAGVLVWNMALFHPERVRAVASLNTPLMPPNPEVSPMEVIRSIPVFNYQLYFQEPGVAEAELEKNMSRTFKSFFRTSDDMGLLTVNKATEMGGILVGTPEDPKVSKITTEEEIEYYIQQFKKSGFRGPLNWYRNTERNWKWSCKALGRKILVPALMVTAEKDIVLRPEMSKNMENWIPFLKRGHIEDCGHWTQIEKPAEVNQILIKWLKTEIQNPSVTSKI

[2] = molecular target: T2, Bifunctional epoxide hydrolase 2 (Homo sapiens, UniProt P34913); assay: Inhibition of recombinant human soluble epoxide hydrolase assessed as increase in fluorescence intensity by fluorescence plate reader
T2 sequence (P34913 whole entry): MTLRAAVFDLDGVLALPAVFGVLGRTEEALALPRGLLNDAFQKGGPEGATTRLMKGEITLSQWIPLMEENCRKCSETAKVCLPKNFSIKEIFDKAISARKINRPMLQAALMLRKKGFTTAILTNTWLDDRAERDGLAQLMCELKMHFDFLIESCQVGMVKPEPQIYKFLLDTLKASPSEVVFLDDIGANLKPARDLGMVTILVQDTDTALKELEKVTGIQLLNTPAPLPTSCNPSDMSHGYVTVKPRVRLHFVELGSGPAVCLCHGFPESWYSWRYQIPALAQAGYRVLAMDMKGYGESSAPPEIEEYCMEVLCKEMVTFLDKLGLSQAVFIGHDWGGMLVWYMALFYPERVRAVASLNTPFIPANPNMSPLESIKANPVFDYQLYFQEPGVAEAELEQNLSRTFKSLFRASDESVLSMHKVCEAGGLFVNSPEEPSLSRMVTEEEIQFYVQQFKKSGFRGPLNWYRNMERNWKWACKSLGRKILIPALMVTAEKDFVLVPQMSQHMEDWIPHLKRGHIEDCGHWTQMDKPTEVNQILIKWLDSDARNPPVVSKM

Row | Structure (SMILES) | IC50 [1] [nM] | IC50 [2] [nM]
1 | O=C(O)CCc1ccc(OC2CCN(C(=O)N[C@@H]3[C@@H](c4ccccc4)[C@H]3c3ccccc3)CC2)cc1 | 3.9 | 2.3
2 | O=C(N[C@@H]1[C@@H](c2ccccc2)[C@H]1c1ccccc1)N1CCCCC1 | 0.2 | 1.8
3 | CN1CCN(C(=O)N[C@@H]2[C@@H](c3ccccc3)[C@H]2c2ccccc2)CC1 | 27.7 | 14.4
4 | O=C(O)CCc1ccc(OC2CCN(C(=O)N[C@H]3C[C@@H]3c3ccccc3)CC2)cc1 (racemic) | 55.6 | 19.1
5 | CC1(C)[C@H](NC(=O)N2CCC(Oc3ccc(CCC(=O)O)cc3)CC2)[C@H]1c1ccccc1 (racemic) | > 100 | > 100
6 | C[C@H]1[C@H](NC(=O)N2CCC(Oc3ccc(CCC(=O)O)cc3)CC2)[C@H]1c1ccccc1 (racemic) | 11.7 | 12

More lines, now with the values ahead:

Row | IC50 [1] [nM] | IC50 [2] [nM] | Structure (SMILES)
7 | 3.2 | 2.1 | O=C(O)CCc1ccc(OC2CCN(C(=O)N[C@@H]3[C@@H](c4ccc(F)cc4)[C@H]3c3ccc(F)cc3)CC2)cc1
8 | 0.8 | 1.4 | CS(=O)(=O)N[C@@H]1CCCN(C(=O)N[C@@H]2[C@@H](c3ccccc3)[C@H]2c2ccccc2)C1 (mixture of isomers)
9 | 0.2 | 0.7 | O=C(N[C@@H]1[C@@H](c2ccccc2)[C@H]1c1ccccc1)N1CCC[C@@H](NS(=O)(=O)c2ccc(F)cc2)C1 (mixture of isomers)
10 | > 100 | 75.7 | C[C@@H]1[C@H](NC(=O)N2CCC(Oc3ccc(CCC(=O)O)cc3)CC2)[C@H]1c1ccccc1 (racemic)

Reference: ChEMBL document CHEMBL3400076, “Three-dimensional rational approach to the discovery of potent substituted cyclopropyl urea soluble epoxide hydrolase inhibitors” (Bioorg Med Chem Lett, 2015)
